Source: US4931498A, “Immobilized artificial membranes” (Purdue Research Foundation, priority 1988, dated 1990)
Square brackets hold non-standard residues; d marks the D form. Ends that are not written are not given here. Peptide text beside a SMILES is read from it.

Key:
[1] = HPLC elution on Nucleosil-lecithin (immobilized artificial membrane) column; assay type: physicochemical; parameters: Elution times: unit not given beside the values; settings: for Elution times: Nucleosil-lecithin column, mobile phase isotonic buffered saline at 1.0 ml/min, detection at 260 nm; for Elution Volumes on Nucleosil-Lecithin, Mobile Phase 0.1% TFA: peptides dissolved in 0.1% aqueous TFA; for Elution Volumes on Nucleosil-Lecithin, Mobile Phase 0.1% TFA / Elution Volumes on Nucleosil-Lecithin, Mobile Phase PBS: detection 220 nm; for Elution Volumes on Nucleosil-Lecithin, Mobile Phase PBS: mobile phase isotonic phosphate buffered saline (pH 7.34)
Method: A 4 mm×100 mm HPLC column was packed with about one gram of Nucleosil-lecithin (pooled from several preparations above) using a Shandon column packer. Excess Nucleosil-lecithin (1.45 grams) was suspended in 15 ml of degassed methanol and then sonicated 5 minutes to assure particle dispersion. The dispersion was transferred to the 30-ml slurry reservoir on the column packer, and 15 ml of degassed methanol was added to fill the reservoir. The column was packed at 4500 psi.
The HPLC elution properties of the Nucleosil-lecithin column were evaluated.
Separation of 2-deoxycytidine (C), 2-deoxyuridine (U), 2'-deoxyguanosine (G) and 2'-deoxyadenosine (A) was effected using isotonic buffered saline as the mobile phase at 1.0 ml/min with detection at 260 nm. Elution times were as follows: C - 1.175; U - 1.465; G - 1.730; and A - 2.090.
FIG. 11 is a chromatogram for a mixture of Peptides I and II, dissolved in 0.1% aqueous trifluoracetic acid (TFA) and detected at 220 nm. In FIG. 11 the mobile phase was isotonic phosphate buffered saline (pH 7.34). FIG. 12 is a chromatogram for a mixture of Peptides III and IV, dissolved in 0.1% aqueous trifluoracetic acid (TFA) and detected at 220 nm. In FIG. 12 the mobile phase was 0.1% TFA.

[2] = HPLC elution on cholesterol-loaded Nucleosil-lecithin column; assay type: physicochemical; settings: for Elution Volumes by Mobile Phase, H2O: mobile phase water
Method: The Nucleosil-lecithin chromatography support material was then "loaded" with cholesterol in situ using the following procedure.
A solution of 80 ml of 1 mg/ml cholesterol in MeOH:isopropanol/8:2 was pumped through the Nucleosil-lecithin using a Bendex pump. […] Approximately […] was recovered in the effluent showing that 40 mg of cholesterol was loaded onto the Nucleosil-lecithin column. This is approximately 50% by weight of the bonded phase. The Nucleosil-lecithin/cholesterol column containing MeOH/isopropanol was attached to the HPLC and eluted with water (approximately 100 ml). The mobile phase was changed to 0.1% TFA and peptides dissolved in 0.1% TFA were injected to determine the elution volumes. The mobile phase was changed to water and the peptides were reinjected after the column was equilibrated with 100 ml of water to determine the elution volumes. The column was washed with PBS buffer (100 ml) and the peptides were again injected to determine elution volumes using PBS as the mobile phase.

| Molecule | Elution times [1] | Elution Volumes by Mobile Phase, 0.1% TFA [2] | Elution Volumes by Mobile Phase, PBS [2] | Elution Volumes by Mobile Phase, H2O [2] | Elution Volumes on Nucleosil-Lecithin, Mobile Phase 0.1% TFA [1] | Elution Volumes on Nucleosil-Lecithin, Mobile Phase PBS [1] |
| --- | --- | --- | --- | --- | --- | --- |
| Nc1ncnc2c1ncn2[C@H]1C[C@H](O)[C@@H](CO)O1 [2'-deoxyadenosine] | 2.090 | – | – | – | – | – |
| O=c1ccn([C@H]2C[C@H](O)[C@@H](CO)O2)c(=O)[nH]1 [2-deoxyuridine] | 1.465 | – | – | – | – | – |
| Nc1ccn([C@H]2C[C@H](O)[C@@H](CO)O2)c(=O)n1 [2-deoxycytidine] | 1.175 | – | – | – | – | – |
| MPSWTGG [Peptide IV, NH2 M-P-S-W-T-G-G-COOH] | – | 2.9 | 5.0 | 4.9 | 4.1 | 4.2 |
| CGYGSTWP [Peptide V, NH2 C-G-Y-G-S-T-W-P--COOH] | – | 6.6 | – | – | – | – |
| MPSWTGGC [Peptide III, NH2 M-P-S-W-T-G-G-C--COOH] | – | 5.3 | 6.9 | 9.2 | 9.4 | 10.0 |
| YGSTWPG [Peptide II, NH2 Y-G-S-T-W-P-G-COOH] | – | 2.7 | 4.8 | 6.6 | 3.1 | 7.6 |
| Nc1nc2c(ncn2[C@H]2C[C@H](O)[C@@H](CO)O2)c(=O)[nH]1 [2'-deoxyguanosine] | 1.730 | – | – | – | – | – |
| HIFNQ-NH2 [Peptide VI, NH2 H-I-F-N-QNH2] | – | 1.0 | 4.2 | 0.8 | – | 5.8 |
| YGSTWPGC [Peptide I, NH2 Y-G-S-T-W-P-G-C--COOH] | – | 5.3 | 7.9 | 7.3 | 7.3 | 13.1 |
| Ac-HIFNQ-NH2 [Peptide VII, NacH-I-F-N-QNH2] | – | 1.3 | 3.2 | 0.8 | – | 3.8 |
| CSCC[C@@H](N)C(=O)N1CCC[C@@H]1C(=O)N[C@H](CO)C(=O)N[C@H](Cc1c[nH]c2ccccc12)C(=O)N[C@@H](C(=O)NCC(=O)NCC(=O)N[C@H](CS)C(=O)O)[C@H](C)O [Peptide VIII, NH2 d,M-d,P-d,S-d,W-d,T-G-G-d,C--COOH] (H-[dM][dP][dS][dW][dT]GG[dC]-OH) | – | 5.0 | 6.5 | 3.0 | – | – |
